Measurements: a melting point compilation (Tetko et al.; mined from patent text by program, amines drawn as free bases though some values may be those of a salt)

melting point [°C]	SMILES
126 to 127	CC(=O)C1CCC2C3CCC4CC(OC(=O)C(Cl)(Cl)Cl)CCC4(C)C3C(=O)CC12C (stereo not given)
141 to 142	CC(=O)NCCc1cccc2ccc(OCCCO)cc12
261	NC(=O)c1cnc2cc(F)c(F)cc2c1
60	COc1ccc(C=C(c2ccc(OCc3ccccc3)cc2)N(C)C)cc1
150 to 152	O=C1COCCN1c1ccc([N+](=O)[O-])cc1
90	N#CC(O)c1c(Cl)cccc1Cl (stereo not given)
54 to 56	Brc1ccc(C2(c3ccccc3)OCCO2)cc1
68 to 71	CCOC(=O)C(=CNc1ccc(OCC)nc1)C(=O)OCC
258	Cc1cc(-c2cnn3c(C(F)(F)F)cc(-c4ccc(Br)cc4)nc23)cc(C)n1
130 to 132	CSC1NC(=O)N(C)C(=O)N1N=C(C)C (stereo not given)
171 to 182	CC(C)C[C@@H](C(=O)N1CCN(C(c2ccc(F)cc2)c2ccc(F)cc2)CC1)N(C)C1CCCCC1
199 to 201	Cc1ccc(S(=O)(=O)NCCc2cccc(OCC(=O)Nc3nnn[nH]3)c2)cc1
173 to 175	COc1cccc(C(=O)NC2(C(=O)N(C)OC)CC2)c1C
146 to 148	O=C(O)C=CC(=O)NCCCCCCCCCCCCCCCCCCCC(=O)O
45 to 46	Fc1ccccc1-c1ccc(Br)cc1F
113 to 114	COc1ccc(C(=CCCC(=O)O)c2ccc(OC)cc2)cc1
168 to 170	Fc1cc(F)c(-c2c(Cl)nc(-n3ccnc3)nc2NCC(F)(F)F)c(F)c1
293 to 295	CC1(N)CN(c2cc3c(cc2F)c(=O)c(C(=O)O)cn3C2CC2)C1
141 to 143	COc1cc2c(cc1OC)CC(N(C)CCCN1CCc3cc(OC)c(OC)cc3C(O)C1=O)CC2 (stereo not given)
205 to 206	CCOCc1ncc[nH]1
209 to 211	CCC(=O)c1c(-c2ccncc2)[nH]c(-c2ccncc2)c1CC
94.3	NC(=O)COCCN1CCN(C(c2ccccc2)c2ccc(Cl)cc2)CC1 (single isomer, unassigned; (-))
36 to 38	CCOC(=O)C(C)c1ccc(-c2ccc(F)cc2F)c(F)c1 (stereo not given)
63	CC(C)C(C(=O)O)c1ccc(OC(F)F)cc1 (stereo not given)

melting point [°C]	SMILES
163 to 165	COc1cc(NOC(C)=O)cc(OC)c1
139 to 140	O=C1c2ccccc2C(=O)N1CCc1ccc2c(c1)OCO2
185 to 186	Cc1cc(OCc2cnc(-c3ccc(C(F)(F)F)nc3)nc2C2CC2)ccc1OC(C)(C)C(=O)O
224 to 225	Cc1nc2c3c(c(C(=O)NCC(C)O)cc2n1C)CCC1(Cc2ccccc2C1)N3 (stereo not given)
207 to 208	Cc1coc(C)c1N(C)c1cc(Br)cc2c1nc(C)n2C
161 to 162	CCOc1ccc(-c2nc(-c3ccc(O)c(C(=O)O)n3)cs2)cc1OCC
93 to 102	COc1cn(-c2cc(-c3cnn(C)c3)ccc2F)nc(-c2ccnn2-c2ccccc2)c1=O
200 to 201	O=C1N(Cc2ncccc2C(F)(F)F)c2ccccc2C12COc1cc3c(cc12)OC(F)(F)O3 (stereo not given)
233 to 235	O=c1[nH]ccc2c1ccn2-c1ccc(C(F)(F)F)cc1Cl
114 to 116	CN(C)C1CC2=CN(S(=O)(=O)c3ccccc3)C=C3C=CC(=O)CC1=C32 (stereo not given)
82 to 84.5	CC(C)SCCOc1ccc(COc2cnn(C(C)(C)C)c(=O)c2Cl)cc1
127	Cc1oc(-c2ccccc2)nc1CCOc1cccc(-c2cccc(OC3(C(=O)O)CCC3)c2)c1
46 to 48	COC(=O)c1ccc([N+](=O)[O-])c(OC(C)C)c1
328 to 330	Cc1cc2c(s1)c(=O)c(C(N)=O)cn2C
90 to 92	CC1(C)CCCC(N2CCN(C3CCC(C(C)(C)C)CC3)CC2)C1 (stereo not given)
132 to 134	CCN1C(=O)CNCc2cc(OC)c([N+](=O)[O-])cc21
108 to 110	COc1cn(-c2ccc(OS(=O)(=O)C(F)(F)F)cc2F)nc(-c2ccnn2-c2ccccc2)c1=O
137	COC(=O)C=Cc1ccc(NC(C)=O)c(OC)c1
70	Cn1nc(C(F)(F)F)nc1NCCCCOc1cccc(CN2CCCCC2)c1
225 to 227	CCOC(=O)/C=C/c1cc(-n2cnnc2)cc(C(F)(F)F)c1N
108	C=CCNC(=O)N1CC(OCc2cccc(C(F)(F)F)c2)C1
212 to 215	COc1cccc(C=CC(=O)C2=C(O)C(=C(C)Nc3ccccc3N)C(=O)OC2=O)c1OC
243 to 244	CC(=O)c1cnc2c(c1)[C@@H](NC(=O)c1ccccc1Cl)[C@H](O)C(C)(C)O2 (relative stereo)
145 to 152	Cc1ccc(C(=O)NC(C)(C(N)=O)C(C)C)cc1 (stereo not given)

melting point [°C]	SMILES
222	CCn1nc(C(C)C)c2c1C(=NC#N)NCC(c1ccccc1)=N2
> 300	Cc1cc(S)n2nc(N)nc2n1
198 to 200	CN1C(=O)N2C(=NC1(C)C)N(C(=O)Nc1ccc(Cl)c(Cl)c1)c1ccccc12
87 to 88	CN(C=O)CNC(=O)c1snc(Cl)c1Cl
159 to 161	CCOC(=O)c1c[nH]c(=S)n1C1CCc2c(F)cc(F)cc2C1 (stereo not given)
71 to 72	Cc1ccc(S(=O)(=O)c2ccc(C)cc2CC(Cl)(Cl)C#N)c(CC(Cl)(Cl)C#N)c1
152 to 155	CC(=O)NC[C@H]1CN(c2ccc(N3CCC(F)(CN)CC3)c(F)c2)C(=O)O1
129 to 131	Nc1cc2c(cc1N)C1CC2CN(C(=O)C(F)(F)F)C1
138 to 140	COC(=O)[C@@H](Cc1ccccc1)Oc1c(Br)cc(-c2c3ccccc3c(Br)c3sc4ccccc4c23)cc1Br
152 to 155	Cc1c(-c2ccccc2)oc2c(CNC(=O)CCl)cccc2c1=O
150	CC(C)(CCCCOc1ccc(NC(=O)CCCn2ccnc2)cc1)C(=O)O
82 to 85	O=c1ccocc1OCc1ccccc1
296 to 299	CCc1cc2[nH]c(=O)c(=O)[nH]c2c(N(CC(=O)OC)S(C)(=O)=O)c1Cl
112 to 113	CCOC(=O)c1c(C)nn(C)c1S(N)(=O)=O
173 to 175	CC(=O)NCC1CN(c2ccc(N3CCN(C(=O)COC(=O)c4cccnc4)CC3)c(F)c2)C(=O)O1 (stereo not given)
234	CCOc1cc(-c2cc(C(F)(F)F)n3ncc(C(=O)Nc4cc(S(=O)(=O)NC(C)(C)CO)sc4Cl)c3n2)ccc1C(F)(F)F
137	CCCCn1c(=O)c2c(nc(/C=C/c3cc(OC)c(OC)c(OC)c3)n2C)n(CCCC)c1=O
128 to 130	CCSc1cc(C(C)C)ccc1N(CC)c1nc(C)cc(C)n1
74 to 75	CCCCCCCCCCOc1ccc2cc(C#CC(C)OC(=O)CC)ccc2c1 (stereo not given)
222 to 224	COc1ccc(-c2oc3cc(NS(C)(=O)=O)c(Oc4ccccc4)cc3c(=O)c2O)cc1OC
123	CC(=O)c1ccccc1NC(C)c1c(Cl)cccc1Cl (stereo not given)
268 to 269	CCn1c(=O)c2c(nc(/C=C/c3ccc(OCC(=O)O)cc3)n2C)n(CC)c1=O
96 to 99	CCN(CC)c1ccc(/C=C/c2cc(/C=C/c3ccc4cc[nH]c4c3)[nH]n2)c(OCCN2CCOCC2)c1
127 to 128	CN1C(=O)C(c2ccc(OC(F)F)cc2)(c2cccc(OCCC=C(F)F)c2)N=C1N (stereo not given)

melting point [°C]	SMILES
70 to 72	c1ccc(NCC2Oc3ccccc3O2)cc1
82 to 85	O=[N+]([O-])c1cccc(O)c1O
181 to 184	CCOc1cc(N)c(Cl)cc1C(=O)NCC1CN(Cc2ccccc2Cl)C(C)(C)CO1 (stereo not given)
100 to 102	COc1ccc(-c2ccnnc2)cc1OC1CCCC1
215 to 217	COc1ccc(CC2CCN(C(=O)C(=O)Nc3ccc4c(c3)CC(=O)N4)CC2)cc1
120 to 121	CCOC(=O)CCCC(=O)c1ccc(-c2ccc(C)cc2)s1
163	OC1CCCc2nc3cc(Cl)ccc3c(NCc3ccccc3)c21 (stereo not given)
241 to 244	COc1cc(C#N)ccc1-c1cc2cc(Cl)c(Cl)cc2[nH]1
95 to 97	COC(=O)N1CCC(c2nn(-c3ccc(F)cc3)c3ccccc23)CC1
104 to 105	O=C1NCC(Cc2ccccc2)O1 (stereo not given)
129 to 130	CC(=O)OCC(=O)C1=CCC2C3CCC4=CC(=O)CCC4(C)C34OC4CC12C (stereo not given)
124 to 126	O=C(CSCCN1C(=O)c2ccccc2C1=O)c1ccc(F)cc1
100 to 102	CCOC(=O)CCCCOc1ccc(OCC(F)(F)F)cc1C(=O)NCC1CCCCN1 (stereo not given)
250 to 252	O=C(O)c1cnc(N2CCN(CC3CC3)C2=O)s1
> 270	CC(=O)Nc1c(-c2ccccc2C)nc2c3ccccc3ccn12
219	CC(C)(C)OC(=O)N1CCOC(C2=C(C#N)C(c3cccc(C#N)c3Br)c3c[nH]nc3N2)C1 (stereo not given)
132 to 133	CCCCc1cc(CCCc2c3c(nn2CCC)c(N)nc2ccccc23)no1
> 315	CCCn1c(=O)n2c(-c3ccc(C(=O)O)cc3)nnc2c2c1ncn2C
90	CC(Oc1ccc(Oc2nc3ccc(Cl)cc3s2)cc1)C(=S)OC[Si](C)(C)C (stereo not given)
198 to 200	Cc1oc(-c2ccccc2)nc1CCOc1ccc(C[C@@H](C(=O)O)N2CCN(S(=O)(=O)c3ccc(F)cc3)CC2)cc1
256 to 257	O=C1CC(=O)NC(c2cccc(Cl)c2)=N1
173 to 174	COCc1c(C(=O)OC(C)C)ncc2[nH]c3cccc(OCc4ccccc4)c3c12
165 to 170	NC(=O)CC[C@H](NC(=O)OCc1ccccc1)C(=O)N[C@@H](Cc1ccc(O)cc1)C(=O)OCc1ccccc1
213 to 214	Cc1c(F)c(Oc2cccnc2)nc(Oc2cccc(C(=N)N)c2)c1F

SMILES	melting point [°C]
OCc1cn2c(n1)CN=C(c1ccccn1)c1cc(I)ccc1-2	206 to 207
CC(=O)Nc1ccc(C)cc1C(=O)c1ccc(F)cc1	140 to 145
O=C(OCc1cccc(Cl)c1)c1ncn2c1[C@@H]1CCCN1C(=O)c1c(Cl)cccc1-2	114 to 116
CNC(=O)Oc1ccc2c(ccn2Cc2ccncc2)c1	170
